Measurements: patent US6720346B2, “Thiazole benzamide derivatives and pharmaceutical compositions for inhibiting cell proliferation” (Agouron Pharmaceuticals, Inc., priority 2001, dated 2004)

How the values were obtained:
human CDK4/cyclin D3 = molecular target: T1, human CDK4/cyclin D3 (Homo sapiens, UniProt P11802); experiment: Inhibition of CDK4/cyclin D retinoblastoma kinase activity (Ki; % inhibition); format: biochemical
T1 construct: made in house; host or cells: insect cells co-infected with baculovirus vectors
T1 sequence (P11802 whole entry): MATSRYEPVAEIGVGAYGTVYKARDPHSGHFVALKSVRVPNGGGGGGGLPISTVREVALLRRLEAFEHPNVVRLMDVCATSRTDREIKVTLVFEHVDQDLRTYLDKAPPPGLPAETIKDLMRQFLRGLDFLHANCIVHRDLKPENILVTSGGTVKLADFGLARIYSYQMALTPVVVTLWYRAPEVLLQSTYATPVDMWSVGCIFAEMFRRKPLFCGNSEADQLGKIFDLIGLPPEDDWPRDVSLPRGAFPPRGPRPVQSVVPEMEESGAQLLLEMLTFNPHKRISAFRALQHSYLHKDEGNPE
T1 sequence (P30281 1-264 partner limits assumed): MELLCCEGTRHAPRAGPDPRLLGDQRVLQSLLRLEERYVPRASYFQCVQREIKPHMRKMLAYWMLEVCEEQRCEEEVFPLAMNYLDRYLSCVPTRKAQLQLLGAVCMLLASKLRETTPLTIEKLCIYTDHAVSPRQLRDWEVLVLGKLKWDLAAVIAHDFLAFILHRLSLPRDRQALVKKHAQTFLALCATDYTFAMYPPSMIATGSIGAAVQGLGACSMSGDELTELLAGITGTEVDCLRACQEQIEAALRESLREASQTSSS
Procedure, shortened: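 Insect-cell-expressed CDK4 with truncated cyclin D3 (1-264), 5 nM, phosphorylating His-tagged Rb fragment (386-928) with 25 μM [32/33P]ATP at pH 7.4, 30 °C, 20 min (60 min for tight binders). Filter capture, phosphorimager read; % inhibition at 30 nM compound, Ki from competitive or tight-binding fits.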

HCT-116 cell line = experiment: Inhibition of cell growth, MTT tetrazolium salt assay; format: cell-based
Procedure, shortened: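 Growth inhibition was read as MTT-formazan absorbance at 540 nm, after 4 h with 0.2 mg/mL MTT. Before that, HCT-116 cells had been exposed 3–5 days at 37 °C to compounds in 0.5% (v/v) DMSO, added 4 h after plating. 50% and 90% inhibitory concentrations were taken from semi-log concentration–inhibition plots versus vehicle controls.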

CDK2/cyclin A = molecular target: T2, CDK2/cyclin A (Homo sapiens, UniProt P24941); experiment: Inhibition of CDK2/cyclin A retinoblastoma kinase activity (Ki; % inhibition); format: biochemical
T2 construct: made in house; host or cells: CDK2: insect cells (baculovirus); cyclin A: E. coli
Procedure, shortened: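 Radiometric filter assay of CDK2/proteolyzed cyclin A (baculovirus-expressed human CDK2, 10 or 19 nM) phosphorylating an Rb fragment with 25 μM [³²P/³³P]ATP in pH 7.4 HEPES, 2% DMSO, at 30 °C for 60 or 75 min under initial-rate conditions. Library compounds screened at 30 nM for % inhibition; apparent Ki from concentration series fit to competitive or tight-binding inhibition equations.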

[1] = HCT-116 cells, 0.25 μM compound

Row | Compound | CDK4 % Inhibition at 0.03 μM (human CDK4/cyclin D3; 0.03 μM compound) [%] | HCT-116 % Inhibition at 0.1 μM (HCT-116 cell line; HCT-116 cells, 0.1 μM compound) [%] | HCT-116 % Inhibition at 0.25 μM (HCT-116 cell line; [1]) [%] | CDK2 % Inhibition at 0.03 μM (CDK2/cyclin A; 0.03 μM compound) [%] | CDK4 % Inhibition at 0.03 μM (human CDK4/cyclin D3; at 0.03 μM) [%] | HCT-116 % Inhibition at 0.25 μM (HCT-116 cell line; HCT-116, at 0.25 μM) [%] | CDK2 % Inhibition at 0.03 μM (CDK2/cyclin A; at 0.03 μM) [%] | HCT-116 % Inhibition at 0.1 μM (HCT-116 cell line; HCT-116, at 0.1 μM) [%]
1 | Nc1nc(Nc2ccc(C(=O)Nc3ccc(CCO)cc3)cc2)sc1C(=O)c1c(F)cccc1F [Example G328] | 29 | 33 | 89 | 19 |  |  |  | 
2 | CCN(CC)CCN(C)C(=O)c1ccc(Nc2nc(N)c(C(=O)c3c(F)cccc3F)s2)cc1 [Example G298] | 30 | 0 | 46 | −9 |  |  |  | 
3 | Nc1nc(Nc2ccc(C(=O)Nc3ccccc3F)cc2)sc1C(=O)c1c(F)cccc1F [Example G235] | 14 | 10 | 51 | 14 |  |  |  | 
4 | COC(=O)[C@H](C(C)C)N(C)C(=O)c1ccc(Nc2nc(N)c(C(=O)c3c(F)cccc3F)s2)cc1 [Example G77] |  |  |  |  | 6 | 51 | 9 | 
5 | Nc1nc(Nc2ccc(C(=O)NCc3ccccc3F)cc2)sc1C(=O)c1c(F)cccc1F [Example G221] | 34 | 20 | 74 | 29 |  |  |  | 
6 | N#CCCNc1ccccc1NC(=O)c1ccc(Nc2nc(N)c(C(=O)c3c(F)cccc3F)s2)cc1 [Example G323] | 7 | 14 | 72 | −14 |  |  |  | 
7 | CCCc1ccc(NC(=O)c2ccc(Nc3nc(N)c(C(=O)c4c(F)cccc4F)s3)cc2)cc1 [Example G204] | 10 | 19 | 49 | 6 |  |  |  | 
8 | CC(=O)N(C)C1CCN(C(=O)c2ccc(Nc3nc(N)c(C(=O)c4c(F)cccc4F)s3)cc2)C1 (stereo not drawn) [Example G348] | 14 | 23 | 51 | −21 |  |  |  | 
9 | COc1ccc(CNC(=O)c2ccc(Nc3nc(N)c(C(=O)c4c(F)cccc4F)s3)cc2)c(OC)c1 [Example G254] | 20 | 35 | 75 | 28 |  |  |  | 
10 | CCOC(=O)N1CCC(NC(=O)c2ccc(Nc3nc(N)c(C(=O)c4c(F)cccc4F)s3)cc2)CC1 [Example G231] | 30 | 6 | 55 | 15 |  |  |  | 
11 | CC1CN(C(=O)c2ccc(Nc3nc(N)c(C(=O)c4c(F)cccc4F)s3)cc2)CC(C)O1 (stereo not drawn) [Example G18] |  |  |  |  | 4 | 41 | −10 | 
12 | COc1cc(NC(=O)c2ccc(Nc3nc(N)c(C(=O)c4c(F)cccc4F)s3)cc2)ccc1C [Example G138] |  |  |  |  | 17 | 65 | 7 | 0
13 | Cc1ccccc1CNC(=O)c1ccc(Nc2nc(N)c(C(=O)c3c(F)cccc3F)s2)cc1 [Example G244] | 27 | 30 | 67 | 35 |  |  |  | 
14 | CN(C)CCCNC(=O)c1ccc(Nc2nc(N)c(C(=O)c3c(F)cccc3F)s2)cc1 [Example G119] |  |  |  |  | 31 | 64 | 11 | 0
